Assays:
JAK1 = molecular target: T1, JAK1 (Homo sapiens, UniProt P23458); assay: JAK1 enzyme activity assay (Thermo Fisher Selectscreen, Z-lyte); type: biochemical; conditions: read-out: JAK1 Inhibition IC50
T1 construct: purchased Thermo Fisher Scientific (SelectScreen service)
Protocol: (§1) The inhibitory potency of candidate compounds of JAK1, JAK2, and Tyk-2 was done at Thermo Fisher Scientific in their Selectscreen using a Z-lyte assay. Following are the assay details for each enzyme.
JAK1: The 2×JAK-enzyme/Tyr 06 mixture is prepared in 50 mM HEPES pH 6.5, 0.01% BRIJ-35, 10 mM MgCl2, 1 mM EGTA, 0.02% NaN3. The final 10 μL of the Kinase Reaction consists of 21.2-91.5 ng JAK1 and 2 μM Tyr 06 in 50 mM HEPES pH 7.0, 0.01% BRIJ-35, 10 mM MgCl2, 1 mM EGTA, 0.01% NaN3. After the one hour Kinase Reaction incubation, 5 μL of a 1:128 dilution of Development Reagent is added.
(§2) Data reduction for JAK1, JAK2 and TYK2 is done the same, independent of the enzyme run. In summary, background signal is defined in the absence of enzyme and uninhibited signal is defined in the presence of vehicle (2% DMSO) alone. Compounds were evaluated in an 11 point dose-response ranging from […] to 0.34 nM. IC50 values of compounds are determined using a 4 parameter logistical fit of emission ratio as a function of the concentration of compound.

JAK2 = molecular target: T2, JAK2 (Homo sapiens, UniProt O60674); assay: JAK2 enzyme activity assay (Thermo Fisher Selectscreen, Z-lyte); type: biochemical; conditions: read-out: JAK2 Inhibition IC50
T2 construct: purchased Thermo Fisher Scientific (SelectScreen service)
Protocol: as §1
JAK2: The 2×JAK2/Tyr 06 mixture is prepared in 50 mM HEPES pH 7.5, 0.01% BRIJ-35, 10 mM MgCl2, 1 mM EGTA. The final 10 μL Kinase Reaction consists of 0.12-0.5 ng JAK2 and 2 μM Tyr 06 in 50 mM HEPES pH 7.5, 0.01% BRIJ-35, 10 mM MgCl2, 1 mM EGTA. After the one hour Kinase Reaction incubation, 5 μL of a 1:128 dilution of Development Reagent A is added.
as §2

JAK3 (a.a. 781-1124) = molecular target: T3, JAK3 (a.a. 781-1124) (Homo sapiens, UniProt P52333); assay: JAK3 enzyme activity assay (SRCtide phosphorylation, Caliper); type: biochemical; conditions: 1 uM ATP; read-out: JAK3 Inhibition IC50
T3 construct: JAK3 (a.a. 781-1124, ThermoFisher); purchased ThermoFisher
Protocol: The activity of JAK3 (a.a. 781-1124, ThermoFisher) was quantified by measuring the phosphorylation of SRCtide (FAM-GEEPLYWSFPAKKK-NH2). Kinase reactions were run in a 384-well Greiner plate with 2% final DMSO concentration under the buffer conditions of 20 mM HEPES, pH 7.5, 10 mM MgCl2, 0.01% BSA, and 0.0005% Tween-20. The kinase reaction components were 2.5 nM JAK3, 1 μM SRCtide peptide and 1 uM ATP. Examples were tested in dose-response starting at […] (11 concentrations, 3-fold serial dilution, duplicate reactions). The reactions were incubated at room temperature for 40 minutes, then stopped by adding a 1:1 volume of 30 mM EDTA in 20 mM HEPES, pH 7.5 (15 mM EDTA final). After the reaction was stopped, the phosphorylated and unphosphorylated peptides were separated and quantified using a Caliper LC3000/EZ-Reader system and HTS Well Analyzer Software (Caliper, A PerkinElmer Company, Hopkinton, Mass.). GraFit (Erithacus Software Ltd., Horley, U.K.) was used to calculate inhibitor potency by fitting dose-response data to the 4-parameter logistical IC50 equation.

Tyk-2 = molecular target: T4, Tyk-2 (Homo sapiens, UniProt P29597); assay: Tyk-2 enzyme activity assay (Thermo Fisher Selectscreen, Z-lyte); type: biochemical; conditions: read-out: Tyk-2 Inhibition IC50
T4 construct: purchased Thermo Fisher Scientific (SelectScreen service)
Protocol: as §1
TYK2: The 2×TYK2/Tyr 03 mixture is prepared in 50 mM HEPES pH 6.5, 0.01% BRIJ-35, 10 mM MgCl2, 1 mM EGTA, 0.02% NaN3. The final 10 μL Kinase Reaction consists of 3.75-15 ng TYK2 and 2 μM Tyr 03 in 50 mM HEPES pH 7.0, 0.01% BRIJ-35, 10 mM MgCl2, 1 mM EGTA, 0.01% NaN3. After the one hour KinaseReaction incubation, 5 μL of a 1:4096 dilution of Development Reagent A is added.
as §2

[1] = tested on: IL-2 stimulated STAT5 phosphorylation on Tyr694 (JAK1/3); assay: JAK1/3 cellular target modulation: IL-2 stimulated phospho-STAT5 in human PBMC; type: cell-based; conditions: IL-2 25 ng/ml, read-out: IL2-STAT5 IC50
Text: (§3) Target modulation was based upon the ability of a compound to inhibit JAK isoform specific phosphorylation of selected substrates. IL-2 stimulated STAT5 phosphorylation on Tyr694 was used to assess JAK1/3 compound selectivity. GM-CSF stimulated STAT5 phosphorylation on Tyr694 was used to assess JAK2 compound selectivity. IFNγ stimulated STAT1 phosphorylation on Tyr701 was used to assess JAK1/2 compound selectivity. IL-12 stimulated STAT4 phosphorylation on Tyr693 was used to assess JAK2/TYK2 compound selectivity. For all four assays, human PBMC from frozen stocks were thawed, pelleted, resuspended in complete media (90% RPMI, 10% heat inactivated FBS, 10 mM HEPES, 47 μM 2-ME, pen/strep) and placed in wells of a 96 well V-bottom plate at 200,000 per well in 120 μl complete media. Compounds were added as 15 μl per well of 10× working stock solutions in complete media with 1% DMSO (or medium with 1% DMSO for controls) and placed on a plate shaker in a 37° C. incubator with 5% CO2 for 1 hour with gentle shaking (setting of 3). Stimulation used the addition of soluble cytokines. For the JAK1/3 phospho-STAT5 assay, 15 μl of 10× working stock recombinant human IL-2 was added to a final concentration of 25 ng/ml. For the JAK2 phospho-STAT5 assay, 15 μl of 10× working stock recombinant human GM-CSF was added to a final concentration of 5 ng/ml. For the JAK1/2 phospho-STAT1 assay, 15 μl of 10× working stock of recombinant human IFNγ was added to a final concentration of 10 ng/ml. For the JAK2/TYK2 phospho-STAT4 assay, 15 μl of 10× working stock of recombinant human IL-12 was added to a final concentration of 1.7 ng/ml. Plates were then placed back on the plate shaker in the incubator for an additional 5, 5, 10, and 25 minutes respectively upon which the plates were removed from the incubator, sealed with a plate sealer and the cells pelleted at 400×g for 5 minutes. After pelleting, the media was removed by aspiration and the cells were lysed in assay specific cell lysis buffer. The levels of phospho-STAT5 were determined using a Phospho (Tyr694)STAT5a,b Whole Cell Lysate kit from Meso Scale Discovery. Levels of phospho-STAT1 were determined using a CST-PathScan Phospho-STAT1 (Tyr701) Sandwich ELISA kit. Levels of phospho-STAT4 were determined using a Phospho-STAT4 (Tyr693) Whole Cell Lysate kit from Meso Scale Discovery.

[2] = tested on: IFNγ stimulated STAT1 phosphorylation on Tyr701 (JAK1/2); assay: JAK1/2 cellular target modulation: IFNγ stimulated phospho-STAT1 in human PBMC; type: cell-based; conditions: IFNγ 10 ng/ml, read-out: Infγ-STAT1 IC50
Text: as §3

[3] = tested on: IL-12 stimulated STAT4 phosphorylation on Tyr693 (JAK2/TYK2); assay: JAK2/TYK2 cellular target modulation: IL-12 stimulated phospho-STAT4 in human PBMC; type: cell-based; conditions: IL-12 1.7 ng/ml, read-out: IL12-STAT4 IC50
Text: as §3

T3 sequence (P52333 781-1124): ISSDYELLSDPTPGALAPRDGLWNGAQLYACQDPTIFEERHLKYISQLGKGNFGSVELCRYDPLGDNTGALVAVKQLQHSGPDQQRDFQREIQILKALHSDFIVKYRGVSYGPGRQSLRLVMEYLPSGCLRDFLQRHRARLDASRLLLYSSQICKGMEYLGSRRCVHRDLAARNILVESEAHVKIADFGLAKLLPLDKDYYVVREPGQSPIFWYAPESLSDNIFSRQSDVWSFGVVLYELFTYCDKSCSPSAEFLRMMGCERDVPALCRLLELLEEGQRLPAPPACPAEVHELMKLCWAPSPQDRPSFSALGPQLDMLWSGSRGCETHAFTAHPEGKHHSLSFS
T2 sequence (O60674 whole entry): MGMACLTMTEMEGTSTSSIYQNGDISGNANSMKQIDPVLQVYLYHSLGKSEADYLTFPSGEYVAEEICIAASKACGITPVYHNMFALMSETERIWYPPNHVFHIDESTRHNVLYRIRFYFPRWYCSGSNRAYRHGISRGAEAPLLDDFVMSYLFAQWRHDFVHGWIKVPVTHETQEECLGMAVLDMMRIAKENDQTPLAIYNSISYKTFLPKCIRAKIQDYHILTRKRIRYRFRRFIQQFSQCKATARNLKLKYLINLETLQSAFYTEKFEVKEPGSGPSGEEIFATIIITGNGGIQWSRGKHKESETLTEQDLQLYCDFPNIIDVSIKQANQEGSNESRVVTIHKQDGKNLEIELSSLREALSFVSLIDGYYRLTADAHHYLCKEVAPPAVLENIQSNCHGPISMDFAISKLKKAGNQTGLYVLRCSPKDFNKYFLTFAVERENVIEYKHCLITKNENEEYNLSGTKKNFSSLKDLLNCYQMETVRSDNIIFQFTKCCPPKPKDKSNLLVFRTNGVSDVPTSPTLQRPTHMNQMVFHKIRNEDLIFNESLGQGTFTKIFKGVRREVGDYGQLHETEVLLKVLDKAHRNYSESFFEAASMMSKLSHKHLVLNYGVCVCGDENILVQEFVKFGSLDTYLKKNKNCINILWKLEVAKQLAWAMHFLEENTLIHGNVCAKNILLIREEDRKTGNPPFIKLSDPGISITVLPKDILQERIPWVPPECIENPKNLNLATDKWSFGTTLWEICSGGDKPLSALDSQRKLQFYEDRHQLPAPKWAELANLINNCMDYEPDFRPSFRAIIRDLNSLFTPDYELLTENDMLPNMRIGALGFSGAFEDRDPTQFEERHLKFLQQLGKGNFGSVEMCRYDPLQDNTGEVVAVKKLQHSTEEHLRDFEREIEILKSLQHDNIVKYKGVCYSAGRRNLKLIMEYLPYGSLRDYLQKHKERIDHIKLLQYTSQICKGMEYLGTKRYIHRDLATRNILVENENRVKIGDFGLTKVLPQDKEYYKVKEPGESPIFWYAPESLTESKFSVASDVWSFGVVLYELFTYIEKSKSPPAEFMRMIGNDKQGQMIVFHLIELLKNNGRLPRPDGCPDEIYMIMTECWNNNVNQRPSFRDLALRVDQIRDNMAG
T4 sequence (P29597 whole entry): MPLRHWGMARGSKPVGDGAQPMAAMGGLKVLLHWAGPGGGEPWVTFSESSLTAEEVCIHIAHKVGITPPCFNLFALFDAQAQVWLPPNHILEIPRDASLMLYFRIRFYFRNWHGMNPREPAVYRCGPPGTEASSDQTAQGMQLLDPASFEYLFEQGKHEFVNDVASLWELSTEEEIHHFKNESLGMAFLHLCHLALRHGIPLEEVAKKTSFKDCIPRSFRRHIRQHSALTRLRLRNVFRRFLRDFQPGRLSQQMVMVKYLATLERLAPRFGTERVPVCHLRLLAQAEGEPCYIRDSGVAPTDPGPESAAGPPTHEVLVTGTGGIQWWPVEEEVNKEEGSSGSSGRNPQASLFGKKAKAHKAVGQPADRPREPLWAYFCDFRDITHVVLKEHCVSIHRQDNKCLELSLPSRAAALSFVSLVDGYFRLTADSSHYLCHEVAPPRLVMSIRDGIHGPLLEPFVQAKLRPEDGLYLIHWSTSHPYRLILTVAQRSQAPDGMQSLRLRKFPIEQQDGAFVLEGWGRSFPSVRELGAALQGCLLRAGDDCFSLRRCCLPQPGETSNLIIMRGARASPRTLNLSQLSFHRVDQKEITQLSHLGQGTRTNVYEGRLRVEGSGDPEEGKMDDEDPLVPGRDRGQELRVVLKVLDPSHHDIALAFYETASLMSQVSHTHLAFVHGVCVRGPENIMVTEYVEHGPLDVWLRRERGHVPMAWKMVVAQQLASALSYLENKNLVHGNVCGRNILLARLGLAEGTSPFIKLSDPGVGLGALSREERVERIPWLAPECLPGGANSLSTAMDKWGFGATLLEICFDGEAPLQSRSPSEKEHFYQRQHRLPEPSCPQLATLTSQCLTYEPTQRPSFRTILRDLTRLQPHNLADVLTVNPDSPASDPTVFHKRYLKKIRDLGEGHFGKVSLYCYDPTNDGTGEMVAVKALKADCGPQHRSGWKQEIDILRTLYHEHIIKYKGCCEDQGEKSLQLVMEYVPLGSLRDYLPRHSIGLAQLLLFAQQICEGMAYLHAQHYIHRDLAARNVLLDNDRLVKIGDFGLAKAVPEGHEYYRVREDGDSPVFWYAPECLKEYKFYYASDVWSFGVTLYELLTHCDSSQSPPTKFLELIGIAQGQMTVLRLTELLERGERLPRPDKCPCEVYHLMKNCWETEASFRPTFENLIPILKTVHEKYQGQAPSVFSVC
T1 sequence (P23458 whole entry): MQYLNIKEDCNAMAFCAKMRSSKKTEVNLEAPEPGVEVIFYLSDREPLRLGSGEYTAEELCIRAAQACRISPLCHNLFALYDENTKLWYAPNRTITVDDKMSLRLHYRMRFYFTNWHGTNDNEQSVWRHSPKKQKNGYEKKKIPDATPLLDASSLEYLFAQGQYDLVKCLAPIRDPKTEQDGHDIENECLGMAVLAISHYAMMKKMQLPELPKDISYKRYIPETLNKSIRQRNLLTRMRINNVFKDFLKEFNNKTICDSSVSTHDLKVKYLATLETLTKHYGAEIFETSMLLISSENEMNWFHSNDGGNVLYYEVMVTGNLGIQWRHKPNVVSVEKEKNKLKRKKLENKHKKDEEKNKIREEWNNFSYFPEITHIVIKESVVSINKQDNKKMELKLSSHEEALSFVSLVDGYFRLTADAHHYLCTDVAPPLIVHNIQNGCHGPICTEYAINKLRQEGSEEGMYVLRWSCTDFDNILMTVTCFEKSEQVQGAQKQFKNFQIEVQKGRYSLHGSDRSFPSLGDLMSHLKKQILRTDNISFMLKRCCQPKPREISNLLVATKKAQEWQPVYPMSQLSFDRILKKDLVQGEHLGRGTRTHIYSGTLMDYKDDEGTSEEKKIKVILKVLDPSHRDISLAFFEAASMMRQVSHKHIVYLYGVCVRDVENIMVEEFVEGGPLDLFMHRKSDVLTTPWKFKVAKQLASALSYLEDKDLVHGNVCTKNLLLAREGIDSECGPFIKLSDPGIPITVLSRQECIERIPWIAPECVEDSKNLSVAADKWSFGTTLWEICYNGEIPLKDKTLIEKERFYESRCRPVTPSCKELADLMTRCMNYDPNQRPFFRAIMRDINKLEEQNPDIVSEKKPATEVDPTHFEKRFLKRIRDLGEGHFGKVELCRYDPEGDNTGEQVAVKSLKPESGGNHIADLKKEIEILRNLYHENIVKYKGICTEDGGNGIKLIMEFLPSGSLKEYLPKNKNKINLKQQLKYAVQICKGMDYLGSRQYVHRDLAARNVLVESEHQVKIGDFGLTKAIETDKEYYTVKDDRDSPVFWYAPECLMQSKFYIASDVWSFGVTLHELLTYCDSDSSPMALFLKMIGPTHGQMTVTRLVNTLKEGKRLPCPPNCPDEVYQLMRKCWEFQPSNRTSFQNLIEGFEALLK

| Compound | IC50 (JAK1) [µM] | IC50 (JAK2) [µM] | IC50 (JAK3 (a.a. 781-1124)) [µM] | IC50 (Tyk-2) [µM] | IC50 [1] [µM] | IC50 [2] [µM] | IC50 [3] [µM] |
| --- | --- | --- | --- | --- | --- | --- | --- |
| N#Cc1ccnc(S(=O)(=O)N[C@H]2C[C@H](Nc3c(-c4ccncn4)cnc4[nH]ccc34)C2)c1 [Example 63, 4-cyano-N-((1r,3r)-3-((5-(pyrimidin-4-yl)-1H-pyrrolo[2,3-b]pyridin-4-yl)amino)cyclobutyl)pyridine-2-sulfonamide] | ≤ 0.01 | ≤ 0.01 | 0.01 to 0.1 | 0.01 to 0.1 | 0.1 to 1 | 0.1 to 1 | > 1 |
| Cc1nccc(-c2cnc3[nH]ccc3c2N[C@H]2C[C@@H](NS(=O)(=O)c3cccc(C#N)c3)C2)n1 [Example 84, 3-cyano-N-((1s,3s)-3-((5-(2-methylpyrimidin-4-yl)-1H-pyrrolo[2,3-b]pyridin-4-yl)amino)cyclobutyl)benzenesulfonamide] | ≤ 0.01 | ≤ 0.01 | ≤ 0.01 | ≤ 0.01 | ≤ 0.1 | 0.1 to 1 | > 1 |
| CCCS(=O)(=O)N[C@H]1C[C@@H](Nc2c(-c3nc(C(=O)NC)co3)cnc3[nH]ccc23)C1 [Example 71, N-methyl-2-(4-(((1s,3s)-3-(propylsulfonamido)cyclobutyl)amino)-1H-pyrrolo[2,3-b]pyridin-5-yl)oxazole-4-carboxamide] | ≤ 0.01 | 0.01 to 0.1 | 0.01 to 0.1 | 0.1 to 1 | 0.1 to 1 | 0.1 to 1 | > 1 |
| Cc1csc(-c2cnc3[nH]ccc3c2N[C@H]2C[C@@H](NS(=O)(=O)c3cccc(C#N)c3)C2)n1 [Example 73, 3-cyano-N-((1s,3s)-3-((5-(4-methylthiazol-2-yl)-1H-pyrrolo[2,3-b]pyridin-4-yl)amino)cyclobutyl)benzenesulfonamide] | ≤ 0.01 | ≤ 0.01 | ≤ 0.01 | 0.01 to 0.1 | 0.1 to 1 | 0.1 to 1 | 0.1 to 1 |
| N#Cc1cccc(S(=O)(=O)N[C@H]2C[C@@H](Nc3c(-c4nccs4)cnc4[nH]ccc34)C2)c1 [Example 69, 3-cyano-N-((1s,3s)-3-((5-(thiazol-2-yl)-1H-pyrrolo[2,3-b]pyridin-4-yl)amino)cyclobutyl)benzenesulfonamide] | ≤ 0.01 | ≤ 0.01 | ≤ 0.01 | ≤ 0.01 | ≤ 0.1 | 0.1 to 1 | 0.1 to 1 |
| Cc1nccc(-c2cnc3[nH]ccc3c2N[C@H]2C[C@@H](NS(=O)(=O)c3cc(C#N)ccn3)C2)n1 [Example 85, 4-cyano-N-((1s,3s)-3-((5-(2-methylpyrimidin-4-yl)-1H-pyrrolo[2,3-b]pyridin-4-yl)amino)cyclobutyl)pyridine-2-sulfonamide] | ≤ 0.01 | ≤ 0.01 | 0.01 to 0.1 | 0.01 to 0.1 | 0.1 to 1 | 0.1 to 1 | > 1 |
| CCCS(=O)(=O)N[C@H]1C[C@@H](Nc2c(-c3nnc(C)s3)cnc3[nH]ccc23)C1 [Example 76, N-((1s,3s)-3-((5-(5-methyl-1,3,4-thiadiazol-2-yl)-1H-pyrrolo[2,3-b]pyridin-4-yl)amino)cyclobutyl)propane-1-sulfonamide] | 0.01 to 0.1 | 0.01 to 0.1 | 0.01 to 0.1 | 0.01 to 0.1 | 0.1 to 1 | 0.1 to 1 | > 1 |
| N#Cc1cccc(S(=O)(=O)N[C@H]2C[C@@H](Nc3c(-c4nncs4)cnc4[nH]ccc34)C2)c1 [Example 78, N-((1s,3s)-3-((5-(1,3,4-thiadiazol-2-yl)-1H-pyrrolo[2,3-b]pyridin-4-yl)amino)cyclobutyl)-3-cyanobenzenesulfonamide] | ≤ 0.01 | ≤ 0.01 | 0.01 to 0.1 | ≤ 0.01 | ≤ 0.1 | 0.1 to 1 | > 1 |
| N#Cc1cccc(S(=O)(=O)N[C@H]2C[C@@H](Nc3c(-c4nnco4)cnc4[nH]ccc34)C2)c1 [Example 79, N-((1s,3s)-3-((5-(1,3,4-oxadiazol-2-yl)-1H-pyrrolo[2,3-b]pyridin-4-yl)amino)cyclobutyl)-3-cyanobenzenesulfonamide] | ≤ 0.01 | ≤ 0.01 | 0.01 to 0.1 | 0.01 to 0.1 | 0.1 to 1 | 0.1 to 1 | > 1 |
| CCCS(=O)(=O)N[C@H]1C[C@@H](Nc2c(-c3nnc(C)o3)cnc3[nH]ccc23)C1 [Example 82, N-((1s,3s)-3-((5-(5-methyl-1,3,4-oxadiazol-2-yl)-1H-pyrrolo[2,3-b]pyridin-4-yl)amino)cyclobutyl)propane-1-sulfonamide] | 0.01 to 0.1 | 0.01 to 0.1 | 0.1 to 1 | 0.1 to 1 | 0.1 to 1 | > 1 | > 1 |
| Cc1nnc(-c2cnc3[nH]ccc3c2N[C@H]2C[C@@H](NS(=O)(=O)CCCC#N)C2)s1 [Example 77, 3-cyano-N-((1s,3s)-3-((5-(5-methyl-1,3,4-thiadiazol-2-yl)-1H-pyrrolo[2,3-b]pyridin-4-yl)amino)cyclobutyl)propane-1-sulfonamide] | ≤ 0.01 | ≤ 0.01 | 0.01 to 0.1 | 0.01 to 0.1 | 0.1 to 1 | 0.1 to 1 | > 1 |

From US20220235043A1, “SUBSTITUTED SULFONAMIDE PYRROLOPYRIDINES AS JAK INHIBITORS” (ACLARIS THERAPEUTICS, INC., priority 2019, published 2022)
